Molecular target: MAPK14 (human) (UniProt Q16539)
Test: Inhibition of MAPK14 Kinase Activity

Sequence of MAPK14 (human) (Q16539 whole entry, looked up): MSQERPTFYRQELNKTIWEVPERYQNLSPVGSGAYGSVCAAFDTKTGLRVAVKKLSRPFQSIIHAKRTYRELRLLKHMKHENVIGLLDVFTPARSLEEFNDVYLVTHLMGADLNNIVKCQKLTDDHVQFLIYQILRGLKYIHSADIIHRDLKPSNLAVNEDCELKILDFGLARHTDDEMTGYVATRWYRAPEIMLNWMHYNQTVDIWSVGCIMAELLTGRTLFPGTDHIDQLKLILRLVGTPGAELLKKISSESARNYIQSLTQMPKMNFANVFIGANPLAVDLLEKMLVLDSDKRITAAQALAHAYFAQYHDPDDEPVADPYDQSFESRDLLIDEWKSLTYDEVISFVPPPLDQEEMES

- IC50: ≤ 1000 nM
SMILES: CCOC(=O)c1sc2c(ccc(=O)n2-c2ccsc2)c1Nc1ccccc1C#N
